Columns and labels:
Test in all cases: cells
Parameters in all cases: Anti-proliferation, 10-point dose response, CellTiter-Glo luminescence (MTT stated for KM12(Luc)), GI50 fitted in Prism
NCI-H23 = conditions: Homo sapiens, NCI-H23, 72 h, read-out: GI50 (µM) a
Description: (§1) To obtain the GI50 value of a substance, cell viability was measured using MTT (G4000, Promega, USA) for KM12(Luc) cell and Cell titer glo (G7572, Promega, USA) for other cell lines. For adherent cells, cells were seeded at 5,000 cells/well in a 96-well plate and treated with a substance one day after cell seeding. For suspension cells, 10,000 cells/well were seeded and the substance was treated after 4 h stabilization of cells. The substance was treated at 10 points of 1:3 serial dilution (0–100 µmol/L) for 72 h. For MTT assay, 15 µL dye solution was added to each well and incubated 4 h at 37°C. 100 µL of solubilization solution was added and followed 1 hr incubation. Absorbance at 570 nm of each well was recorded using EnVision microplate reader (Perkin Elmer). For Cell titer glo assay, Cell titer glo reagent was treated in each well and measured the luminescence by EnVision microplate reader (Perkin Elmer). Viable cells in each well were normalized by using 0.5% DMSO-treated wells (100%). The inhibitor dose−response curve was fitted and GI50 values were calculated using Prism 7.0 software (GraphPad). All assays were performed in duplicate and the standard deviation (SD) was determined from two independent experiments. KM12(Luc) was purchased from the JCRB cell bank. KM12 (Luc) was used within 6 months after purchase and the DNA profiles were confirmed using a short tandem repeat (STR) analysis by the Korean Cell Line Bank. KM12(Luc) cells were maintained in DMEM supplemented with 10% FBS and antibiotics. Parental Ba/F3 cells were purchased from DSMZ and were grown in RPMI1640 supplemented with 10% FBS and antibiotics in the presence of IL3, Transformed Ba/F3 cell lines were grown in the same media without IL3. Cells used in this study were negative for mycoplasma contamination. AN3-CA, HEC1A, U138, 8505C, MKN28, MKN45, A172, A375, Capan-1 HeLa, HEP3B, MCF-7 and MIA-paca-2 cells were maintained in DMEM (Welgene, Korea) supplemented with 10% FBS and antibiotics (Welgene, Korea). Otherwise, all cells were maintained in RPMI (Welgene, Korea) supplemented with 10% FBS and antibiotics (Welgene, Korea). To identify AZD4547 sensitive cell lines other than FGFR-mutant driven cancer cells, GI50 values were determined for AZD4547 against 64 different cancer cell lines, including AN3-CA used as a positive control ( Figure 1A and Table S1 ). […] Also, inhibitory activity of AZD4547 against DDR1 or FLT3 allows suppression of proliferation of U-2-OS and MV4-11 ([43]). Therefore, our attention focused on the inhibitory activity of AZD4547 against KM12(Luc) cell lines which have the TPM3-NTRK1 fusion gene. To exclude the possibility that the anti-proliferation activity of AZD4547 against KM12(Luc) is a common characteristic of FGFR inhibitors, we determined if BGJ398, a representative FGFR inhibitor, is also capable of suppressing proliferation of KM12(Luc) cells ( Figure 1B ).

HEC1A = conditions: Homo sapiens, HEC-1-A, 72 h, read-out: GI50 (µM) a
Description: as §1

OCI-AML3 = conditions: Homo sapiens, OCI-AML-3, 72 h, read-out: GI50 (µM) a
Description: as §1

OVCAR-8 = conditions: Homo sapiens, OVCAR-8, 72 h, read-out: GI50 (µM) a
Description: as §1

RT-112 = conditions: Homo sapiens, RT-112, 72 h, read-out: GI50 (µM) a
Description: as §1

SNU484 = conditions: SNU-484, 72 h, read-out: GI50 (µM) a
Description: as §1

Molm-14 = conditions: Homo sapiens, MOLM-14, 72 h, read-out: GI50 (µM) a
Description: as §1

NCI-H1299 = conditions: Homo sapiens, NCI-H1299, 72 h, read-out: GI50 (µM) a
Description: as §1

C8161 = conditions: Homo sapiens, C8161, 72 h, read-out: GI50 (µM) a
Description: as §1

U138 = conditions: KM12-Luc, 72 h, read-out: GI50 (µM) a
Description: as §1

SK-MEL-30 = conditions: Homo sapiens, SK-MEL-30, 72 h, read-out: GI50 (µM) a
Description: as §1

U937 = conditions: Homo sapiens, U-937, 72 h, read-out: GI50 (µM) a
Description: as §1

Compound `COc1cc(CCc2cc(NC(=O)c3ccc(N4C[C@@H](C)N[C@@H](C)C4)cc3)n[nH]2)cc(OC)c1` [AZD4547] has a GI50 (NCI-H23) of 10.8 µM, a GI50 (HEC1A) of 35.6 µM and a GI50 (OCI-AML3) of 6.75 µM. The GI50 (OVCAR-8) was 4.97 µM, the GI50 (RT-112) was 0.42 µM and the GI50 (SNU484) was 24.6 µM. For the same compound, the GI50 (Molm-14) was 1.25 µM, the GI50 (NCI-H1299) was 60.6 µM and the GI50 (C8161) was 11.1 µM. The GI50 (U138) was 8.48 µM, the GI50 (SK-MEL-30) was 16.5 µM and the GI50 (U937) was 12.2 µM.
